Experimental data reported in patent publication US9751907B2, “Arbekacin derivative, and production and use thereof” (MEIJI SEIKA PHARMA CO., LTD., priority 2013, dated 2017).

Tests used:
[1] = Moisture-absorbing properties on storage at 40° C. at defined humidity; assay type: physicochemical; conditions: stored at 40° C.
[2] = Storage stability of the solid at 40° C. and 75% humidity, related substances analysed by HPLC; assay type: physicochemical; conditions: for Amount of related substances increased: related substance content: 40° C., 75% RH
Method: The HPLC analysis conditions were as described in (3) Dibekacin and (4) Related substance in the purity test for arbekacin sulfate in the Japanese Pharmacopoeia Sixteen Edition.
Specifically, arbekacin free base was stored at 40° C. and a humidity of 75% for 1 month and 2 months, and the amount of related substances changed was analyzed by HPLC.

moisture-absorbing properties ([1]; Humidity 12%): 1.60
moisture-absorbing properties ([1]; Humidity 22%): 4.62
moisture-absorbing properties ([1]; Humidity 30%): 6.25
moisture-absorbing properties ([1]; Humidity 43%): 7.54
moisture-absorbing properties ([1]; Humidity 53%): 9.14
Amount of related substances increased: related substance content ([2]; 1-month storage): 1.7%
Amount of related substances increased: related substance content ([2]; 2-month storage): 4.3%
amount of the related substances changed (i.e., the amount increased) ([2]; stored at 40° C. and a humidity of 75% for 1 month and 2 months): ≥ 4%
Structure (SMILES): NCC[C@H](O)C(=O)N[C@@H]1C[C@H](N)[C@@H](O[C@H]2O[C@H](CN)CC[C@H]2N)[C@H](O)[C@H]1O[C@H]1O[C@H](CO)[C@@H](O)[C@H](N)[C@H]1O [arbekacin free base, Arbekacin]
